The text below walks through data of ChEMBL document CHEMBL5291721, “A preclinical secondary pharmacology resource illuminates target-adverse drug reaction associations of marketed drugs” (Nat Commun, 2023).

One may read the AC50 as the concentration at which the activity in the assay is half-maximal.

The target of one experiment is Prothrombin (Homo sapiens, UniProt P00734). It counts as functional.
The target of experiment [1] is Vascular endothelial growth factor receptor 2 (Homo sapiens, UniProt P35968). It counts as functional.
Vascular endothelial growth factor receptor 2, sequence (P35968 whole entry): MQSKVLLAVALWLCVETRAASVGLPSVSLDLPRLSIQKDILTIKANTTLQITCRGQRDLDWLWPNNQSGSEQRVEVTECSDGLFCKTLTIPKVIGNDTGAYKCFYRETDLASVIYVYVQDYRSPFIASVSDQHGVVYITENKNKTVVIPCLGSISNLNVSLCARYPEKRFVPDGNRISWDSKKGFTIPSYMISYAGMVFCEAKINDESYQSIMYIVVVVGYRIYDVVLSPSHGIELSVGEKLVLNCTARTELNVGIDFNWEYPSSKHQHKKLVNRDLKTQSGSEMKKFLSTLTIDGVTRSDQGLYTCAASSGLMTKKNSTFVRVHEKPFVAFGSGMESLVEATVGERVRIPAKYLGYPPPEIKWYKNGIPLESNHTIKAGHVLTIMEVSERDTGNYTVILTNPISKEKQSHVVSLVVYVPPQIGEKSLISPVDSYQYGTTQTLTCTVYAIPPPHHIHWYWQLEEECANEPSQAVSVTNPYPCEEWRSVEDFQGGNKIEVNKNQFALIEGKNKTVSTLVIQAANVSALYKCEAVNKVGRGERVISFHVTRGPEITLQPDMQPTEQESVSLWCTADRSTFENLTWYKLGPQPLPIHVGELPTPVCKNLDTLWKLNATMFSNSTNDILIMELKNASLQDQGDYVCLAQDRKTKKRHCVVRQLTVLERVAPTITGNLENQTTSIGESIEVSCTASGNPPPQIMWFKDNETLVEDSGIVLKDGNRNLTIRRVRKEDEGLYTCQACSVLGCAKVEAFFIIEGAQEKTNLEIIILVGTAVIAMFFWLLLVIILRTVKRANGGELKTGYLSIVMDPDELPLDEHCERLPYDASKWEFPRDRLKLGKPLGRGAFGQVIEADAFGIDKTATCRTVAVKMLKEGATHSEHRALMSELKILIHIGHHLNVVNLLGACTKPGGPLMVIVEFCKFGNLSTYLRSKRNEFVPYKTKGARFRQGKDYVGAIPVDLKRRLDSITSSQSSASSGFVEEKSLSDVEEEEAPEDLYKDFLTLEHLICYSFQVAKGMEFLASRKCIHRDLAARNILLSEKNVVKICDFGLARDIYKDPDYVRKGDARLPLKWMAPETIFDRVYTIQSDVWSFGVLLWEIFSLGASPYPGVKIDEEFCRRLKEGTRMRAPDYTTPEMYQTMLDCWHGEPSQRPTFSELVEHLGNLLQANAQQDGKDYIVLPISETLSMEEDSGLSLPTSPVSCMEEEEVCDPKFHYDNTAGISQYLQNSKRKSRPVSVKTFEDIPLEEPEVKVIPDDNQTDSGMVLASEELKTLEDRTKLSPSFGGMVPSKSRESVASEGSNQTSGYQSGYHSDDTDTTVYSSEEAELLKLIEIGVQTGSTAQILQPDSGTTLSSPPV
The target of experiment [2] is T1, 5-hydroxytryptamine receptor 1A (Homo sapiens, UniProt P08908).
T1 sequence (P08908 whole entry): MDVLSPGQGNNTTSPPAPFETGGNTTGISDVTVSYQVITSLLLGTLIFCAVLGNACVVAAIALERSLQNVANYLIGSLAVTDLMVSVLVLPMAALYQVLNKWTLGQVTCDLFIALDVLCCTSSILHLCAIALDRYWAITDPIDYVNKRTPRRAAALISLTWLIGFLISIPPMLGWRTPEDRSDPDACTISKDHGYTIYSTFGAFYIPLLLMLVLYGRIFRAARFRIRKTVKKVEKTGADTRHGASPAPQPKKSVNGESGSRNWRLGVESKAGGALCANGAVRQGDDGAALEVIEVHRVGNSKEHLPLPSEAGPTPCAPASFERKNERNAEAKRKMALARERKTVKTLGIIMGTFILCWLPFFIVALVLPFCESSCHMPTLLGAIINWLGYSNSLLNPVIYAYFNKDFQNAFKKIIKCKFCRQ

The target of experiment [3] is Voltage-dependent L-type calcium channel subunit alpha-1C (Rattus norvegicus, UniProt P22002). In kind it is functional.
Voltage-dependent L-type calcium channel subunit alpha-1C, sequence (P22002 whole entry): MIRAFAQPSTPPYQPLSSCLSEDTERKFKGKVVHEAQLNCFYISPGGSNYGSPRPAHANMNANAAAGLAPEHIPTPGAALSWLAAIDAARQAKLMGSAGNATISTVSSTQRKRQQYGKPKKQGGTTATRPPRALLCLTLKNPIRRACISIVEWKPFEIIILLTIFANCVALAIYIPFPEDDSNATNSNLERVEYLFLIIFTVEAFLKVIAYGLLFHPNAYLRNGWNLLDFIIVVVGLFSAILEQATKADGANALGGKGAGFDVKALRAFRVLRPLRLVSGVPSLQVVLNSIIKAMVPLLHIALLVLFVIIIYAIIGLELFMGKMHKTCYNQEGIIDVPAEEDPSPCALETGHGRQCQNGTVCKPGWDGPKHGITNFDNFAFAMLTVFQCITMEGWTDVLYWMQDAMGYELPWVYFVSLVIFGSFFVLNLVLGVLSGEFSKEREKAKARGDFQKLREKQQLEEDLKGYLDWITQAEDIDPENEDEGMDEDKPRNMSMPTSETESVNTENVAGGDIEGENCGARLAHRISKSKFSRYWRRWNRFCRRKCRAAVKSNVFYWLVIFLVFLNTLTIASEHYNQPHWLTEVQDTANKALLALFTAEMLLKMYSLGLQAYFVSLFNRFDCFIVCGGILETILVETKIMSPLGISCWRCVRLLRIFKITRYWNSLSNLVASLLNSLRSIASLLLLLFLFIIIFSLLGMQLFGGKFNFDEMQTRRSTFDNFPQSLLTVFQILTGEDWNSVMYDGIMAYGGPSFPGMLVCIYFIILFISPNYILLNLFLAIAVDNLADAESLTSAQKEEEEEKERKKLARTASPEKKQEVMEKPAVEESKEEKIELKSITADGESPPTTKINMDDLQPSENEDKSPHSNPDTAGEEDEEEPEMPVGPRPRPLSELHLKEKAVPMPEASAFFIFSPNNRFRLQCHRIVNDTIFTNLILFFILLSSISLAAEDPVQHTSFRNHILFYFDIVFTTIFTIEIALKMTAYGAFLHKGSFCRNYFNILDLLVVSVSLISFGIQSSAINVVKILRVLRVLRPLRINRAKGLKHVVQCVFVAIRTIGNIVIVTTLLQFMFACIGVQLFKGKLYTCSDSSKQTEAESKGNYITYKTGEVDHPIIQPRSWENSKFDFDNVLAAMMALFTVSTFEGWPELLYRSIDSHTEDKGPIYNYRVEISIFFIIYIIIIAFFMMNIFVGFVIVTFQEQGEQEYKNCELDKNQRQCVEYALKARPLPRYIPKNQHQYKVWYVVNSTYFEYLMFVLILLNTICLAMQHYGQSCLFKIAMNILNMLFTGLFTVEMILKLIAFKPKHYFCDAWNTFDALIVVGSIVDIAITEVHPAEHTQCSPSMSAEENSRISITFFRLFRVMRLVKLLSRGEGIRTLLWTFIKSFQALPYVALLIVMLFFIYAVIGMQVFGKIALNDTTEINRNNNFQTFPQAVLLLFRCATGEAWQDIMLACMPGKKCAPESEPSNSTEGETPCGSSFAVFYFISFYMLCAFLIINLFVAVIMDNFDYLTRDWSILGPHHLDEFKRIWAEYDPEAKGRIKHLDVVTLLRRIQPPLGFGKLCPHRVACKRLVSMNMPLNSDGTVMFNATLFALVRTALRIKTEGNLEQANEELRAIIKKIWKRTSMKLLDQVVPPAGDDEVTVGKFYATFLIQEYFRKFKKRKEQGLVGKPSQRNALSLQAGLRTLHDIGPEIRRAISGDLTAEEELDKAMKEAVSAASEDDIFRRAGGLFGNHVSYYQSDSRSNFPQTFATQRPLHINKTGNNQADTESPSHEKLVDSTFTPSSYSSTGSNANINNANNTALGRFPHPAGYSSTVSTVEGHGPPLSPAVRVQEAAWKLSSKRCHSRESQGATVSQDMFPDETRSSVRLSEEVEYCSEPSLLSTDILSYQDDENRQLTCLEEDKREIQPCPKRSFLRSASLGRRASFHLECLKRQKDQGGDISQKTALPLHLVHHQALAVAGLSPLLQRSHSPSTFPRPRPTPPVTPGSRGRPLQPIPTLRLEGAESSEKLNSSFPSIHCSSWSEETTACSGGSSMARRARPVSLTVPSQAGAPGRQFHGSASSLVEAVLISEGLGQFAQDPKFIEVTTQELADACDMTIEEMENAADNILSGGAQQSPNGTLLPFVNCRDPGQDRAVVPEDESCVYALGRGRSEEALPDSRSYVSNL
Experiment [4] has as its target T2, Mu-type opioid receptor (Homo sapiens, UniProt P35372).
For the next experiment, the target named is T3, Estrogen receptor (Homo sapiens, UniProt P03372).
T3 sequence (P03372 whole entry): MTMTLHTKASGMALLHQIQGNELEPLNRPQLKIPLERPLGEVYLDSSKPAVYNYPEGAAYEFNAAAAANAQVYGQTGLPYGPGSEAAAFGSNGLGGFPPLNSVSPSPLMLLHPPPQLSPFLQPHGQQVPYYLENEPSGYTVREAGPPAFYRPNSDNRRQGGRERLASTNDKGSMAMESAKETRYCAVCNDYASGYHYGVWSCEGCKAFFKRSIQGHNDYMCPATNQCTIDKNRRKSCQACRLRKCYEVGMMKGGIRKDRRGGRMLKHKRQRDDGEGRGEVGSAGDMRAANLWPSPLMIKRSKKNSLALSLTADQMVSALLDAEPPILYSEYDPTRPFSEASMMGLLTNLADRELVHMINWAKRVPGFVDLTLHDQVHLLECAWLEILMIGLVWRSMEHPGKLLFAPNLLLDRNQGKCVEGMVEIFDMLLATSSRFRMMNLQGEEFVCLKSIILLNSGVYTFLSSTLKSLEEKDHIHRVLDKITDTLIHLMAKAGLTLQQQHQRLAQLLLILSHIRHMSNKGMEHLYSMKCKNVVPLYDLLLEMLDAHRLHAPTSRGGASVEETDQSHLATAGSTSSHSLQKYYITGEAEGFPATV

For experiment [5], the target named is T4, Alpha-1A adrenergic receptor (Homo sapiens, UniProt P35348).
T4 sequence (P35348 whole entry): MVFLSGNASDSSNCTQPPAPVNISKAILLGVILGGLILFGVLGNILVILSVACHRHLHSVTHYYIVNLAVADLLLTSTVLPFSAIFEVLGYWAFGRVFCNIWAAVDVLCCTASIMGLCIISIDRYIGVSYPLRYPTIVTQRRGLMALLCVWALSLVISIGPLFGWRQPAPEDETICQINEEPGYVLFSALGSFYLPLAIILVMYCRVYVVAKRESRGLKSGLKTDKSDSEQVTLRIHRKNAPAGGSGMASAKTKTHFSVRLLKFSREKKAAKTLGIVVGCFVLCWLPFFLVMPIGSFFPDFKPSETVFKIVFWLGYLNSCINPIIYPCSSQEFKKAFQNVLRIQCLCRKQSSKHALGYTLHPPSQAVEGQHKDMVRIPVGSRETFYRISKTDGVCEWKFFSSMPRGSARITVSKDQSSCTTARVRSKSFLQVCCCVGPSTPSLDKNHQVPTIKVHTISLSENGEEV

For experiment [6], the target named is Sodium-dependent noradrenaline transporter (Homo sapiens, UniProt P23975).
Sodium-dependent noradrenaline transporter, sequence (P23975 whole entry): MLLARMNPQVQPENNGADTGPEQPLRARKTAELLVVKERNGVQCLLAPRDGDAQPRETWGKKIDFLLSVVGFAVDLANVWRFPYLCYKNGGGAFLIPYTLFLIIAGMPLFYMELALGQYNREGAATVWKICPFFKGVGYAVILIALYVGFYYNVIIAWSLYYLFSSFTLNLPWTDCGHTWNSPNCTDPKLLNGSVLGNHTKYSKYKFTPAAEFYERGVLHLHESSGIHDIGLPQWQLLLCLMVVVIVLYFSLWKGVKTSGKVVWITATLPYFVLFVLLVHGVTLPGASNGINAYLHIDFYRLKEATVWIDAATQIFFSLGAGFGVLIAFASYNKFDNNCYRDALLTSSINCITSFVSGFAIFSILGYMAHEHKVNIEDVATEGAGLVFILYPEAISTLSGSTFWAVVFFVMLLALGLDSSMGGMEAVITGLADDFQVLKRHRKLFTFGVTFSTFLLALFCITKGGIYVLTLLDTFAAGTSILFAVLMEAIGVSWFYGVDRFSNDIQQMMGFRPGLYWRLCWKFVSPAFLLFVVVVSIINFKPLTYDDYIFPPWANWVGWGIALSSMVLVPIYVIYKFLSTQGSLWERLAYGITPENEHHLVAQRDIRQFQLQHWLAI
The next experiment concerns the target T5, Thromboxane A2 receptor (Homo sapiens, UniProt P21731).
T5 sequence (P21731 whole entry): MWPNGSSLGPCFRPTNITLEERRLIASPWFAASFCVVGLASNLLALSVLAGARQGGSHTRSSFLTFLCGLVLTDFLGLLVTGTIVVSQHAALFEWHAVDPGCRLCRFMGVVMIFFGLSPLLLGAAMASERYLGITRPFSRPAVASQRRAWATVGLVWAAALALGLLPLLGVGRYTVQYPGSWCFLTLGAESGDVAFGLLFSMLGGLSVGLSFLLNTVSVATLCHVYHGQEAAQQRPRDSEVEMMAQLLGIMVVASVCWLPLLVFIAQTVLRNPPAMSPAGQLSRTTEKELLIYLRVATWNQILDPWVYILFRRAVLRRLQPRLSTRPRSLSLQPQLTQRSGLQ

The target of experiment [7] is T6, Neuropeptide Y receptor type 1 (Homo sapiens, UniProt P25929).
T6 sequence (P25929 whole entry): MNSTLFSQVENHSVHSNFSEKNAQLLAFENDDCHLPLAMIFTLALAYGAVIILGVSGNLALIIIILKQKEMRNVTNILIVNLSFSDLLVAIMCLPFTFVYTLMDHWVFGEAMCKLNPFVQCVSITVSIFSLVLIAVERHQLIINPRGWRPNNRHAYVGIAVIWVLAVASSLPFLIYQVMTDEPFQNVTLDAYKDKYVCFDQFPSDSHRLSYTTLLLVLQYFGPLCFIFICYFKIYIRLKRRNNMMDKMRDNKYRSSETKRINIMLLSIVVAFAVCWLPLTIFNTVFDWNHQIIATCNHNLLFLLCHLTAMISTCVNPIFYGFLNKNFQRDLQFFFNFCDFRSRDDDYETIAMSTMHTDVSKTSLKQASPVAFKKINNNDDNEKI

The target of the next experiment is T7, Adenosine receptor A3 (Homo sapiens, UniProt P0DMS8).
T7 sequence (P0DMS8 whole entry): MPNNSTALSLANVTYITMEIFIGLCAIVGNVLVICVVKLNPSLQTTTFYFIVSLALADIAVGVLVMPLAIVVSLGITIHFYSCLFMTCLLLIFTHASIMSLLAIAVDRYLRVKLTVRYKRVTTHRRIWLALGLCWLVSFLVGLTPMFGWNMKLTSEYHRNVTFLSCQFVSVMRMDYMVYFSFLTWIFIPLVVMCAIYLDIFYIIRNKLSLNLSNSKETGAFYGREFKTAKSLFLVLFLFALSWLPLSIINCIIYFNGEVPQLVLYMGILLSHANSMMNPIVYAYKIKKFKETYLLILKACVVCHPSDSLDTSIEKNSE

Experiment [8] concerns the target T2, Mu-type opioid receptor. In words: biochemical. It counts as functional.

A value given as a limit tells only on which side of the number the result lay.
Further: assay procedure not described here.

T2 sequence (P35372 whole entry): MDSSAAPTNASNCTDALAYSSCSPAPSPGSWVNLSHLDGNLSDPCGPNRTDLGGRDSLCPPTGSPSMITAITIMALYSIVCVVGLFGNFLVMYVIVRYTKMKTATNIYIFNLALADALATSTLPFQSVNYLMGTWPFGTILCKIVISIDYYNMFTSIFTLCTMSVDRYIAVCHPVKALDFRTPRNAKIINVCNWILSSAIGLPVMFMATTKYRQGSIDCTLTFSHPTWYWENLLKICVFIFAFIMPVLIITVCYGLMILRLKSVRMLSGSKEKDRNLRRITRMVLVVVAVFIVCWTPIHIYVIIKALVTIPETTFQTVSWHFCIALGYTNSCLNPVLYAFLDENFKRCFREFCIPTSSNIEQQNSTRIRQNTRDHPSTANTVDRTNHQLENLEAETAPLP

In the case of `CC(C(=O)O)c1ccc(N2CC=CC2)c(Cl)c1` (centres undefined) [PIRPROFEN], the AC50 at Prothrombin is > 30 µM; in [1], > 30 µM; in experiment [2], > 30 µM; in experiment [3], > 10 µM; on Mu-type opioid receptor [4], > 30 µM; at Estrogen receptor it was > 30 µM. The AC50 is > 10 µM in [5]; > 30 µM in experiment [6]; > 30 µM on Thromboxane A2 receptor; > 30 µM in experiment [7]; > 30 µM on Adenosine receptor A3.

Regarding `Oc1ncnc2[nH]ncc12` [ALLOPURINOL], the AC50 on Prothrombin is > 30 µM; in experiment [1] it was > 30 µM; in experiment [2], > 30 µM; in [3], > 10 µM; on Mu-type opioid receptor [4] it was > 30 µM; at Estrogen receptor, > 30 µM. The AC50 is 2.88 µM in experiment [5]; > 30 µM in experiment [6]; > 30 µM on Thromboxane A2 receptor; > 30 µM in experiment [7]; > 30 µM on Adenosine receptor A3.

As to `CCc1ccc(CCOc2ccc(CC3SC(=O)NC3=O)cc2)nc1` (centres undefined) [PIOGLITAZONE], the AC50 is > 30 µM on Prothrombin; > 30 µM in [1]; > 30 µM in [2]; > 30 µM at Mu-type opioid receptor [8]; > 10 µM in experiment [3]; > 10 µM on Mu-type opioid receptor [4]. Besides, the AC50 at Estrogen receptor is > 30 µM; in experiment [5], > 10 µM; in experiment [6], > 30 µM; at Thromboxane A2 receptor, > 30 µM; in [7], > 30 µM; at Adenosine receptor A3, > 30 µM.

As for `CN(CCOc1ccc(NS(C)(=O)=O)cc1)CCc1ccc(NS(C)(=O)=O)cc1` [DOFETILIDE], the AC50 (on Prothrombin; in [1]; in experiment [2]; at Mu-type opioid receptor [8]; on Mu-type opioid receptor [4]; on Estrogen receptor) was > 30 µM each time. For the same compound, the AC50 is > 10 µM in [5]; > 30 µM in experiment [6]; > 30 µM on Thromboxane A2 receptor; > 30 µM in [7]; > 30 µM at Adenosine receptor A3.

As to `OC[C@@H](O)[C@@H](O)[C@H](O)[C@H](O)CO` [MANNITOL], the AC50 (on Prothrombin; in [1]; in [2]; on Estrogen receptor; in [6]; on Adenosine receptor A3) was > 30 µM in each case.

As to `Sc1ncnc2nc[nH]c12` [MERCAPTOPURINE ANHYDROUS], the AC50 (on Prothrombin; in experiment [1]; in experiment [2]; on Estrogen receptor; in [6]; at Adenosine receptor A3) was > 30 µM each time.

Take `COc1cc2c(cc1OC)C(=O)C(CC1CCN(Cc3ccccc3)CC1)C2` (centres undefined) [DONEPEZIL]: the AC50 on Prothrombin was > 30 µM; in experiment [1], > 30 µM; in experiment [3], > 10 µM; at Mu-type opioid receptor [4], > 30 µM; on Estrogen receptor it was > 30 µM; in experiment [6] it was 9.13 µM. Moreover, the concentration at half-maximal activity (AC50) (at Thromboxane A2 receptor; in experiment [7]; at Adenosine receptor A3) was > 30 µM each time.

For the compound `Cc1ccc(O)c2ncccc12` [TILIQUINOL], the AC50 at Prothrombin was > 30 µM; in experiment [1], > 30 µM; in [2], > 30 µM; at Estrogen receptor it was > 30 µM; in experiment [6] it was 6.22 µM; at Adenosine receptor A3, > 30 µM.

For the compound `CN(C)C(=O)Oc1ccc[n+](C)c1` [PYRIDOSTIGMINE], the AC50 (at Prothrombin; in [1]; in [2]; on Estrogen receptor; in experiment [6]; at Adenosine receptor A3) was > 30 µM throughout.

Consider `O=C(COc1ccc(Cl)cc1)N1CCN(Cc2ccc3c(c2)OCO3)CC1` [FIPEXIDE], for which the AC50 at Prothrombin was > 30 µM; in experiment [1], > 30 µM; in experiment [2], > 30 µM; on Estrogen receptor, > 30 µM; in experiment [6], 20.4 µM; on Adenosine receptor A3, > 30 µM.

In the case of `C#C[C@]1(O)CC[C@H]2[C@@H]3CCC4=CC(=O)CC[C@@H]4[C@H]3CC[C@@]21CC` [LEVONORGESTREL], the AC50 was > 30 µM on Prothrombin; > 30 µM in [1]; > 30 µM in [2]; 8.65 µM at Estrogen receptor; > 30 µM in [6]; > 30 µM on Adenosine receptor A3.

On to `CN1CCCC(CN2c3ccccc3Sc3ccccc32)C1` (centres undefined) [MEPAZINE], for which the AC50 at Prothrombin was > 30 µM; in experiment [1] it was > 30 µM; in experiment [2], > 30 µM; on Estrogen receptor it was > 30 µM; in experiment [6], 2.38 µM; at Adenosine receptor A3, > 30 µM.

Regarding `CCOC(=O)c1ccc(O)cc1` [ETHYLPARABEN], the concentration at half-maximal activity (AC50) (at Prothrombin; in [1]; in [2]; at Estrogen receptor; in experiment [6]; on Adenosine receptor A3) was > 30 µM in each case.

As to `CC1(C)O[C@@H]2C[C@H]3[C@@H]4C[C@H](F)C5=CC(=O)CC[C@]5(C)[C@H]4[C@@H](O)C[C@]3(C)[C@]2(C(=O)CO)O1` [FLURANDRENOLIDE], the AC50 (at Prothrombin; in [1]; in experiment [2]; on Estrogen receptor; in experiment [6]; on Adenosine receptor A3) was > 30 µM each time.

`C[N+]1(C)[C@@H]2C[C@@H](OC(=O)[C@H](CO)c3ccccc3)C[C@H]1[C@@H]1O[C@@H]12` [METHSCOPOLAMINE]: the AC50 (at Prothrombin; in experiment [1]; in experiment [2]; at Estrogen receptor; in experiment [6]; at Adenosine receptor A3) was > 30 µM throughout.
